Results from paper PMC4965013, “Open Source Drug Discovery with the Malaria Box Compound Collection for Neglected Diseases and Beyond” (PLoS Pathogens, 2016).
pEC50: −log10 of the molar value.

Experiments:
[1] = test system: P. falciparum 3D7 trophozoites; assay: Metabolomic fingerprint profiling LC-MS; format: cell-based, Plasmodium falciparum; design: UDP-D-glucose / ADP-D-glucose: unit not given here; conditions: for Acetyllysine / N-acetyl-L-ornithine / N-carbamoyl-L-aspartate / NADPH / dAMP / dCMP / dTDP / dTMP / dTTP / dihydroorotate / orotate / DLH / DLS/SDL/SID / PD / PEE / PVNF / 3-phosphoglycerate / ADP-D-glucose / ATP / CDP / D-sedoheptulose-1/7-phosphate / FAD / GMP / NAD+ / NADP+ / Octoluse Bisphosphate / Pyroglutamic acid / UDP-D-glucose / UDP-D-glucuronate / UDP-N-acetyl-glucosamine / UDP / UMP / UTP / a-ketoglutarate / citrate/isocitrate / cytidine / dATP / dGMP/AMP / fumarate / glucose-1/6-phosphate / glycerate / guanine / guanosine / hypoxanthine / indole / inosine / nicotinate / ornithine / phosphoenolpyruvate / pyruvate / ribose-phosphate / sarcosine/alanine / sn-glycerol-3-phosphate / succinate/methylmalonic acid / uridine / xanthosine: S2 Table Metabolomics; for Acetyllysine: metabolite Acetyllysine; for N-acetyl-L-ornithine: metabolite N-acetyl-L-ornithine; for N-carbamoyl-L-aspartate: metabolite N-carbamoyl-L-aspartate; for NADPH: metabolite NADPH; for dAMP: metabolite dAMP; for dCMP: metabolite dCMP; for dTDP: metabolite dTDP; for dTMP: metabolite dTMP; for dTTP: metabolite dTTP; for dihydroorotate: metabolite dihydroorotate; for orotate: metabolite orotate; for DLH: peptide DLH; for DLS/SDL/SID: peptide DLS/SDL/SID; for PD: peptide PD; for PEE: peptide PEE; for PVNF: peptide PVNF; for 3-phosphoglycerate: metabolite 3-phosphoglycerate; for ADP-D-glucose: metabolite ADP-D-glucose; for ATP: metabolite ATP; for CDP: metabolite CDP; for CDP / D-sedoheptulose-1/7-phosphate / GMP / Octoluse Bisphosphate / UDP / UMP / UTP / citrate/isocitrate / dGMP/AMP / fumarate / glucose-1/6-phosphate / glycerate / guanine / guanosine / inosine / pyruvate / sarcosine/alanine / succinate/methylmalonic acid / uridine / xanthosine: change in metabolite level after compound treatment; for D-sedoheptulose-1/7-phosphate: metabolite D-sedoheptulose-1/7-phosphate; for FAD: metabolite FAD; for GMP: metabolite GMP; for NAD+: metabolite NAD+; for NADP+: metabolite NADP+; for Octoluse Bisphosphate: metabolite Octoluse Bisphosphate; for Pyroglutamic acid: metabolite Pyroglutamic acid; for UDP-D-glucose: metabolite UDP-D-glucose; for UDP-D-glucuronate: metabolite UDP-D-glucuronate; for UDP-N-acetyl-glucosamine: metabolite UDP-N-acetyl-glucosamine; for UDP: metabolite UDP; for UMP: metabolite UMP; for UTP: metabolite UTP; for a-ketoglutarate: metabolite a-ketoglutarate; for citrate/isocitrate: metabolite citrate/isocitrate; for cytidine: metabolite cytidine; for dATP: metabolite dATP; for dGMP/AMP: metabolite dGMP/AMP; for fumarate: metabolite fumarate; for glucose-1/6-phosphate: metabolite glucose-1/6-phosphate; for glycerate: metabolite glycerate; for guanine: metabolite guanine; for guanosine: metabolite guanosine; for hypoxanthine: metabolite hypoxanthine; for indole: metabolite indole; for inosine: metabolite inosine; for 2_3-Diphosphoglyceric acid / 4-phosphopantothenate / 6-phospho-D-gluconate / FMN / IMP / Pyrophosphate / Sedoheptoluse bisphosphate / cyclic-AMP / glutathione disulfide / lactate / myo-inositol: metabolite level change after treatment; for nicotinate: metabolite nicotinate; for ornithine: metabolite ornithine; for phosphoenolpyruvate: metabolite phosphoenolpyruvate; for pyruvate: metabolite pyruvate; for ribose-phosphate: metabolite ribose-phosphate; for sarcosine/alanine: metabolite sarcosine/alanine; for sn-glycerol-3-phosphate: metabolite sn-glycerol-3-phosphate; for succinate/methylmalonic acid: metabolite succinate/methylmalonic acid; for uridine: metabolite uridine; for xanthosine: metabolite xanthosine
P. falciparum = assay: EC50 listed in S2 Table Metabolomics (used to set the concentration tested); format: cell-based; conditions: Plasmodium falciparum; EC50 used for Factor_XEC50 in metabolomics; read-out: EC50_nM

CCOC(=O)c1ccc2nc(-c3ccccc3)cc(O)c2c1 [MMV006457]
Acetyllysine [1]: -0.3384 | N-acetyl-L-ornithine [1]: -0.3139 | N-carbamoyl-L-aspartate [1]: 4.351 | NADPH [1]: 0.6352 | dAMP [1]: -0.4724 | dCMP [1]: -0.3312 | dTDP [1]: -1.515 | dTMP [1]: -1.363 | dTTP [1]: -1.304 | dihydroorotate [1]: 4.958 | orotate [1]: -1.367 | DLH [1]: -0.4882 | DLS/SDL/SID [1]: -0.4763 | PD [1]: 0.2786 | PEE [1]: -0.4235 | PVNF [1]: -0.7922 | 3-phosphoglycerate [1]: 0.07595 | ADP-D-glucose [1]: 0.02112 | ATP [1]: 0.06279 | CDP [1]: -1.282 | D-sedoheptulose-1/7-phosphate [1]: -0.2959 | FAD [1]: 0.202 | GMP [1]: 0.5528 | NAD+ [1]: 0.1474 | NADP+ [1]: -0.1781 | Octoluse Bisphosphate [1]: -0.2401 | Pyroglutamic acid [1]: 0.01503 | UDP-D-glucose [1]: 0.02564 | UDP-D-glucuronate [1]: -0.1377 | UDP-N-acetyl-glucosamine [1]: -0.1506 | UDP [1]: -1.814 | UMP [1]: -1.819 | UTP [1]: -1.644 | a-ketoglutarate [1]: -0.2281 | citrate/isocitrate [1]: -0.877 | cytidine [1]: 0.9143 | dATP [1]: 0.2755 | dGMP/AMP [1]: -0.2048 | fumarate [1]: 0.4222 | glucose-1/6-phosphate [1]: 0.1449 | glycerate [1]: -0.03038 | guanine [1]: 0.7811 | guanosine [1]: 0.4264 | hypoxanthine [1]: 0.2443 | indole [1]: 0.3097 | inosine [1]: 0.319 | 2_3-Diphosphoglyceric acid [1]: -0.1036 | 4-phosphopantothenate [1]: -0.4551 | 6-phospho-D-gluconate [1]: 0.1425 | FMN [1]: -0.04566 | IMP [1]: 0.4558 | Pyrophosphate [1]: 0.1188 | Sedoheptoluse bisphosphate [1]: -0.2455 | cyclic-AMP [1]: -0.04029 | glutathione disulfide [1]: 0.1448 | lactate [1]: 0.2927 | myo-inositol [1]: -0.1285 | nicotinate [1]: 0.07641 | ornithine [1]: 0.3647 | phosphoenolpyruvate [1]: -0.1372 | pyruvate [1]: -0.1462 | ribose-phosphate [1]: 0.3187 | sarcosine/alanine [1]: 0.6115 | sn-glycerol-3-phosphate [1]: 0.3451 | succinate/methylmalonic acid [1]: -0.4755 | uridine [1]: -0.2838 | xanthosine [1]: -0.0194 | pEC50 (P. falciparum): 6.93

Cc1cc(C)c2c(c1)OCN(Cc1ccccc1Cl)C2 [MMV006558]
Acetyllysine [1]: -2.938 | N-acetyl-L-ornithine [1]: -1.964 | N-carbamoyl-L-aspartate [1]: -1.702 | NADPH [1]: 1.445 | dAMP [1]: -0.9651 | dCMP [1]: -1.6 | dTDP [1]: -0.8236 | dTMP [1]: -0.6183 | dTTP [1]: -0.3776 | dihydroorotate [1]: -0.3745 | orotate [1]: -1.522 | DLH [1]: -1.617 | DLS/SDL/SID [1]: -1.662 | PD [1]: -0.9196 | PEE [1]: -0.2697 | PVNF [1]: -2.308 | 3-phosphoglycerate [1]: 0.4267 | ADP-D-glucose [1]: 0.5003 | ATP [1]: -0.07449 | CDP [1]: -0.458 | D-sedoheptulose-1/7-phosphate [1]: -0.2481 | FAD [1]: -0.09577 | GMP [1]: -0.6278 | NAD+ [1]: -0.187 | NADP+ [1]: 0.696 | Octoluse Bisphosphate [1]: 0.1942 | Pyroglutamic acid [1]: -0.3768 | UDP-D-glucose [1]: -0.01001 | UDP-D-glucuronate [1]: -0.03433 | UDP-N-acetyl-glucosamine [1]: -0.1316 | UDP [1]: -0.1918 | UMP [1]: -1.063 | UTP [1]: -0.2178 | a-ketoglutarate [1]: -0.938 | citrate/isocitrate [1]: -0.4783 | cytidine [1]: 0.109 | dATP [1]: -0.2852 | dGMP/AMP [1]: -0.5349 | fumarate [1]: -0.8198 | glucose-1/6-phosphate [1]: -0.2057 | glycerate [1]: -0.7466 | guanine [1]: -1.035 | guanosine [1]: -2.479 | hypoxanthine [1]: -0.7995 | indole [1]: -0.5445 | inosine [1]: -0.9523 | 2_3-Diphosphoglyceric acid [1]: 0.34 | 4-phosphopantothenate [1]: -0.8939 | 6-phospho-D-gluconate [1]: 0.2839 | FMN [1]: -0.2862 | IMP [1]: -0.2354 | Pyrophosphate [1]: 0.3685 | Sedoheptoluse bisphosphate [1]: 0.2016 | cyclic-AMP [1]: -0.8187 | glutathione disulfide [1]: -0.2625 | lactate [1]: -0.7314 | myo-inositol [1]: -0.7596 | nicotinate [1]: -0.1344 | ornithine [1]: -0.1775 | phosphoenolpyruvate [1]: 0.3748 | pyruvate [1]: -0.4201 | ribose-phosphate [1]: -0.1559 | sarcosine/alanine [1]: -0.2827 | sn-glycerol-3-phosphate [1]: 0.1135 | succinate/methylmalonic acid [1]: -0.725 | uridine [1]: -1.514 | xanthosine [1]: -1.032 | pEC50 (P. falciparum): 6.57
